The series has as its system lat1Δ. The series can be described thus: Yeast growth assay of lat1Δ with isoleucine. It counts as cell-based, Saccharomyces cerevisiae. Particulars: minimal media with isoleucine, 40 h. The procedure: Growth curves of WT and lat1Δ on minimal media with or without […] isoleucine. Cells were incubated at 30° C. for 40 h, with continuous shaking.
To establish an in vivo model in yeast for the study of BCAA accumulation and toxicity, the LAT1 gene was disrupted. LAT1 encodes the dihydrolipoamide acetyltransferase component (E2) of the yeast pyruvate dehydrogenase complex. LAT1 catalyzes the oxidative decarboxylation of pyruvate to acetyl-CoA and mutations in DBT1, the human homolog, can lead to Maple Syrup Urine Disease (MSUD).

Take `CC[C@H](C)[C@H](N)C(=O)O` [isoleucine]: the “growth with isoleucine in the growth medium” value is given as “sensitivity”.
